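Interpolation was linear, between the two tested concentrations surrounding the appropriate level; five concentrations were tested over 48 hours in 96-well plates. The concentration for full growth arrest is given as TGI.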
How the values were obtained:
Assay in all cases: growth of human tumour cells (NCI), 48 h
UACC-257 melanoma = test system: UACC-257 melanoma
A549 NSCLC = test system: A549 NSCLC
MDA-MB-435 = test system: MDA-MB-435
EKVX NSCLC = test system: EKVX NSCLC
HT29 colon = test system: HT29 colon
A498 renal = test system: A498 renal
MCF7 breast = test system: MCF7 breast
OVCAR-8 ovarian = test system: OVCAR-8 ovarian
MALME-3M melanoma = test system: MALME-3M melanoma
DU-145 prostate = test system: DU-145 prostate
SW-620 colon = test system: SW-620 colon
MDA-N = test system: MDA-N
HS 578T breast = test system: HS 578T breast
SNB-75 CNS = test system: SNB-75 CNS
SF-295 CNS = test system: SF-295 CNS
PC-3 prostate = test system: PC-3 prostate
OVCAR-4 ovarian = test system: OVCAR-4 ovarian
UACC-62 melanoma = test system: UACC-62 melanoma
MOLT-4 leukemia = test system: MOLT-4 leukemia
NCI-H226 lung = test system: NCI-H226 lung
LOX IMVI melanoma = test system: LOX IMVI melanoma
SNB-19 CNS = test system: SNB-19 CNS
SR leukemia = test system: SR leukemia
SN12C renal = test system: SN12C renal
SK-OV-3 ovarian = test system: SK-OV-3 ovarian
IGROV1 ovarian = test system: IGROV1 ovarian
SK-MEL-2 melanoma = test system: SK-MEL-2 melanoma
U251 CNS = test system: U251 CNS
MDA-MB-231 breast = test system: MDA-MB-231 breast
RPMI-8226 leukemia = test system: RPMI-8226 leukemia
ACHN renal = test system: ACHN renal
786-0 renal = test system: 786-0 renal
SK-MEL-28 melanoma = test system: SK-MEL-28 melanoma
TK-10 renal = test system: TK-10 renal
CCRF-CEM leukemia = test system: CCRF-CEM leukemia
NCI/ADR-RES ovarian = test system: NCI/ADR-RES ovarian
OVCAR-5 ovarian = test system: OVCAR-5 ovarian
NCI-H23 lung = test system: NCI-H23 lung
HOP-62 NSCLC = test system: HOP-62 NSCLC
M14 melanoma = test system: M14 melanoma
HCT-116 colon = test system: HCT-116 colon
UO-31 renal = test system: UO-31 renal
COLO 205 colon = test system: COLO 205 colon
HCT-15 colon = test system: HCT-15 colon
K-562 leukemia = test system: K-562 leukemia
SF-268 CNS = test system: SF-268 CNS
SK-MEL-5 melanoma = test system: SK-MEL-5 melanoma
OVCAR-3 ovarian = test system: OVCAR-3 ovarian
KM12 colon = test system: KM12 colon
CAKI-1 renal = test system: CAKI-1 renal
HOP-92 NSCLC = test system: HOP-92 NSCLC
NCI-H460 lung = test system: NCI-H460 lung
T-47D breast = test system: T-47D breast
BT-549 breast = test system: BT-549 breast
RXF 393 renal = test system: RXF 393 renal
HCC-2998 colon = test system: HCC-2998 colon
HL-60(TB) leukemia = test system: HL-60(TB) leukemia
SF-539 CNS = test system: SF-539 CNS

In the case of `O=C(O)CCC(NC(=O)c1ccc(CNc2nc3ccccc3nc2C(=O)O)cc1)C(=O)O` (configuration not stated), the TGI (UACC-257 melanoma) is reported as greater than 100 µM, the TGI (A549 NSCLC) is reported as greater than 100 µM and the TGI (MDA-MB-435) is reported as greater than 100 µM. It also gave a TGI (EKVX NSCLC) greater than 100 µM, a TGI (HT29 colon) greater than 100 µM and a TGI (A498 renal) greater than 100 µM. It also gave a TGI (MCF7 breast) greater than 100 µM, a TGI (OVCAR-8 ovarian) greater than 100 µM and a TGI (MALME-3M melanoma) greater than 100 µM. For the same molecule, the TGI (DU-145 prostate) was greater than 100 µM, the TGI (SW-620 colon) was greater than 100 µM and the TGI (MDA-N) was greater than 100 µM. It also gave a TGI (HS 578T breast) greater than 100 µM, a TGI (SNB-75 CNS) greater than 100 µM and a TGI (SF-295 CNS) greater than 100 µM. It also gave a TGI (PC-3 prostate) greater than 100 µM, a TGI (OVCAR-4 ovarian) greater than 100 µM and a TGI (UACC-62 melanoma) greater than 100 µM. The TGI (MOLT-4 leukemia) was greater than 100 µM, the TGI (NCI-H226 lung) was greater than 100 µM and the TGI (LOX IMVI melanoma) was greater than 100 µM. For the same molecule, the TGI (SNB-19 CNS) was greater than 100 µM, the TGI (SR leukemia) was greater than 100 µM and the TGI (SN12C renal) was greater than 100 µM. It also gave a TGI (SK-OV-3 ovarian) greater than 100 µM, a TGI (IGROV1 ovarian) greater than 100 µM and a TGI (SK-MEL-2 melanoma) greater than 100 µM. For the same molecule, the TGI (U251 CNS) was greater than 100 µM, the TGI (MDA-MB-231 breast) was greater than 100 µM and the TGI (RPMI-8226 leukemia) was greater than 100 µM. The TGI (ACHN renal) was greater than 100 µM, the TGI (786-0 renal) was greater than 100 µM and the TGI (SK-MEL-28 melanoma) was greater than 100 µM. It also gave a TGI (TK-10 renal) greater than 100 µM, a TGI (CCRF-CEM leukemia) greater than 100 µM and a TGI (NCI/ADR-RES ovarian) greater than 100 µM. It also gave a TGI (OVCAR-5 ovarian) greater than 100 µM, a TGI (NCI-H23 lung) greater than 100 µM and a TGI (HOP-62 NSCLC) greater than 100 µM. It also gave a TGI (M14 melanoma) greater than 100 µM, a TGI (HCT-116 colon) greater than 100 µM and a TGI (UO-31 renal) greater than 100 µM. For the same molecule, the TGI (COLO 205 colon) was greater than 100 µM, the TGI (HCT-15 colon) was greater than 100 µM and the TGI (K-562 leukemia) was greater than 100 µM. The TGI (SF-268 CNS) was greater than 100 µM, the TGI (SK-MEL-5 melanoma) was greater than 100 µM and the TGI (OVCAR-3 ovarian) was greater than 100 µM. It also gave a TGI (KM12 colon) greater than 100 µM.

Work on `COc1ccc2nc3n(c2c1)C(c1c(Cl)cccc1Cl)SC3` (configuration not stated) yielded a TGI (CAKI-1 renal) greater than 100 µM, a TGI (UACC-257 melanoma) greater than 100 µM and a TGI (A549 NSCLC) greater than 100 µM. The TGI (MDA-MB-435) was greater than 100 µM, the TGI (EKVX NSCLC) was greater than 100 µM and the TGI (A498 renal) was greater than 100 µM. For the same molecule, the TGI (MCF7 breast) was greater than 100 µM, the TGI (OVCAR-8 ovarian) was greater than 100 µM and the TGI (DU-145 prostate) was greater than 100 µM. It also gave a TGI (SW-620 colon) greater than 100 µM, a TGI (MDA-N) greater than 100 µM and a TGI (SNB-75 CNS) greater than 100 µM. The TGI (SF-295 CNS) was greater than 100 µM, the TGI (PC-3 prostate) was greater than 100 µM and the TGI (OVCAR-4 ovarian) was 65.9 µM. It also gave a TGI (UACC-62 melanoma) greater than 100 µM, a TGI (MOLT-4 leukemia) greater than 100 µM and a TGI (NCI-H226 lung) greater than 100 µM. For the same molecule, the TGI (LOX IMVI melanoma) was greater than 100 µM, the TGI (SNB-19 CNS) was greater than 100 µM and the TGI (HOP-92 NSCLC) was greater than 100 µM. For the same molecule, the TGI (SR leukemia) was greater than 100 µM, the TGI (SN12C renal) was greater than 100 µM and the TGI (SK-OV-3 ovarian) was greater than 100 µM. For the same molecule, the TGI (IGROV1 ovarian) was greater than 100 µM, the TGI (SK-MEL-2 melanoma) was greater than 100 µM and the TGI (NCI-H460 lung) was greater than 100 µM. For the same molecule, the TGI (T-47D breast) was greater than 100 µM, the TGI (U251 CNS) was greater than 100 µM and the TGI (RPMI-8226 leukemia) was greater than 100 µM. For the same molecule, the TGI (BT-549 breast) was greater than 100 µM, the TGI (ACHN renal) was greater than 100 µM and the TGI (786-0 renal) was greater than 100 µM. For the same molecule, the TGI (SK-MEL-28 melanoma) was greater than 100 µM, the TGI (TK-10 renal) was greater than 100 µM and the TGI (CCRF-CEM leukemia) was greater than 100 µM. The TGI (NCI/ADR-RES ovarian) was greater than 100 µM, the TGI (OVCAR-5 ovarian) was greater than 100 µM and the TGI (NCI-H23 lung) was greater than 100 µM. It also gave a TGI (HOP-62 NSCLC) greater than 100 µM, a TGI (RXF 393 renal) greater than 100 µM and a TGI (M14 melanoma) greater than 100 µM. For the same molecule, the TGI (HCT-116 colon) was greater than 100 µM, the TGI (UO-31 renal) was greater than 100 µM and the TGI (COLO 205 colon) was greater than 100 µM. For the same molecule, the TGI (HCT-15 colon) was greater than 100 µM, the TGI (K-562 leukemia) was greater than 100 µM and the TGI (HCC-2998 colon) was greater than 100 µM. For the same molecule, the TGI (SK-MEL-5 melanoma) was greater than 100 µM, the TGI (HL-60(TB) leukemia) was greater than 100 µM and the TGI (OVCAR-3 ovarian) was greater than 100 µM. It also gave a TGI (KM12 colon) greater than 100 µM.

Molecule `CCN(CC)CCCC(C)Nc1cc(/C=C/c2ccc(Cl)cc2)nc2cc(N(C)C)ccc12` (configuration not stated) has a TGI (MDA-MB-435) of 3.06 µM, a TGI (EKVX NSCLC) of 3.34 µM and a TGI (HT29 colon) of 2.65 µM. It also gave a TGI (A498 renal) of 3.12 µM, a TGI (MCF7 breast) of 3.39 µM and a TGI (OVCAR-8 ovarian) of 3.41 µM. The TGI (DU-145 prostate) was 3.21 µM, the TGI (SW-620 colon) was 2.69 µM and the TGI (MDA-N) was 3.01 µM. The TGI (SF-295 CNS) was 3.33 µM, the TGI (PC-3 prostate) was 2.78 µM and the TGI (UACC-62 melanoma) was 6.54 µM. The TGI (SF-539 CNS) was 4.65 µM, the TGI (MOLT-4 leukemia) was 3.01 µM and the TGI (NCI-H226 lung) was 11.6 µM. The TGI (SNB-19 CNS) was 3.3 µM, the TGI (HOP-92 NSCLC) was 3.16 µM and the TGI (SR leukemia) was 2.85 µM. It also gave a TGI (SN12C renal) of 3.25 µM, a TGI (T-47D breast) of 3.55 µM and a TGI (U251 CNS) of 3.19 µM. For the same molecule, the TGI (BT-549 breast) was 3.01 µM, the TGI (ACHN renal) was 4.42 µM and the TGI (TK-10 renal) was 3.54 µM. It also gave a TGI (OVCAR-5 ovarian) of 3.37 µM, a TGI (HOP-62 NSCLC) of 3.4 µM and a TGI (RXF 393 renal) of 3.06 µM. It also gave a TGI (M14 melanoma) of 3.09 µM, a TGI (HCT-116 colon) of 2.49 µM and a TGI (UO-31 renal) of 3.55 µM. For the same molecule, the TGI (HCT-15 colon) was 3.17 µM, the TGI (HCC-2998 colon) was 3.57 µM and the TGI (SK-MEL-5 melanoma) was 4.34 µM. It also gave a TGI (HL-60(TB) leukemia) of 3.54 µM, a TGI (OVCAR-3 ovarian) of 3.49 µM and a TGI (KM12 colon) of 3.26 µM.

Reference: PubChem BioAssay (NCI)
